Results: patent publication US8658794B2, “8-methyl-1-phenyl-imidazol[1,5-a]pyrazine compounds as Lck inhibitors and uses thereof” (Merck Sharp & Dohme B.V., priority 2010, dated 2014)

Molecular target: T1, N-terminal His6-tagged recombinant full-length human Lck (Homo sapiens, UniProt P06239)
T1 construct: N-terminal His6-tagged recombinant full-length human Lck; His6 (N); purchased Millipore
Assay: Lck IMAP assay
Assay type: biochemical
Settings: ATP 6 μM (KM,ATP), enzyme pre-incubated with compounds for 60 minutes, values given as bins
Outline: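 Full-length His6-Lck at 0.1 U/ml was preincubated 60 min with compound, then run 120 min at room temperature with 100 nM fluorescein-p34cdc2 peptide and 6 μM ATP (KM) in pH 7.2 Tris buffer. Read-out by IMAP fluorescence polarization; pIC50 from ten-point √10 dilutions starting at 10^-6 M.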

T1 sequence (P06239 whole entry): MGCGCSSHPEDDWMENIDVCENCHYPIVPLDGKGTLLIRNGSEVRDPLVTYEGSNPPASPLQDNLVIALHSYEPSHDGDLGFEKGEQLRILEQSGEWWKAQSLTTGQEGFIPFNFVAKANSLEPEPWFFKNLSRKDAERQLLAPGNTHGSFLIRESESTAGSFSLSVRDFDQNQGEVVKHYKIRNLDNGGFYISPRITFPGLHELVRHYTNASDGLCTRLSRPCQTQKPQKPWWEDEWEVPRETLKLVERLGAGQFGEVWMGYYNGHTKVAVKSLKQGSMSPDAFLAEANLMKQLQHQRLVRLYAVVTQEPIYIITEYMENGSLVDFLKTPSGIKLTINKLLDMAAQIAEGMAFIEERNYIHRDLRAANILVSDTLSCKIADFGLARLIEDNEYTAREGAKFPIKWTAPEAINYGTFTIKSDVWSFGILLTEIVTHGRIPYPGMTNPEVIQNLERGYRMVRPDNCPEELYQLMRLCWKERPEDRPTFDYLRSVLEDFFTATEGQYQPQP

Row | SMILES | IC50
1 | COc1cc(-c2nc([C@H]3CC[C@H](N4CCNCC4)CC3)n3ccnc(C)c23)ccc1NC(=O)c1cc2c(OC)cccc2n1C [Example 54, 4-Methoxy-N-(2-methoxy-4-(8-methyl-3-((trans)-4-(piperazin-1-yl)cyclohexyl)imidazo[1,5-a]pyrazin-1-yl)phenyl)-1-methyl-1H-indole-2-carboxamide] | ≤ 10 nM
2 | COc1cc(-c2nc([C@H]3CC[C@H](N4CCN(C)CC4)CC3)n3ccnc(C)c23)ccc1NC(=O)c1cc(Cl)cn1C [Example 55, 4-Chloro-N-(2-methoxy-4-(8-methyl-3-((trans)-4-(4-methylpiperazin-1-yl)cyclohexyl)imidazo[1,5-a]pyrazin-1-yl)phenyl)-1-methyl-1H-pyrrole-2-carboxamide] | ≤ 10 nM
3 | COc1cc(-c2nc([C@H]3CC[C@H](N4CCN(C)CC4)CC3)n3ccnc(C)c23)ccc1NC(=O)c1cc2ccsc2n1C [Example 56, N-(2-methoxy-4-(8-methyl-3-((trans)-4-(4-methylpiperazin-1-yl)cyclohexyl)imidazo[1,5-a]pyrazin-1-yl)phenyl)-6-methyl-6H-thieno[2,3-b]pyrrole-5-carboxamide] | ≤ 10 nM
4 | COc1cc(-c2nc([C@H]3CC[C@H](N4CCN(C)CC4)CC3)n3ccnc(C)c23)ccc1NC(=O)c1cc2ccsc2[nH]1 [Example 57, N-(2-Methoxy-4-(8-methyl-3-((trans)-4-(4-methylpiperazin-1-yl)cyclohexyl)imidazo[1,5-a]pyrazin-1-yl)phenyl)-6H-thieno[2,3-b]pyrrole-5-carboxamide] | ≤ 10 nM
5 | COc1cc(-c2nc([C@H]3CC[C@H](N4CCN(C)CC4)CC3)n3ccnc(C)c23)ccc1NC(=O)c1cc2c(OC)cccc2[nH]1 [Example 58, 4-Methoxy-N-(2-methoxy-4-(8-methyl-3-((trans)-4-(4-methylpiperazin-1-yl)cyclohexyl)imidazo[1,5-a]pyrazin-1-yl)phenyl)-1H-indole-2-carboxamide] | ≤ 10 nM
6 | COc1cc(-c2nc([C@H]3CC[C@H](N4CCN(C)CC4)CC3)n3ccnc(C)c23)ccc1NC(=O)c1cc2c(O)cccc2n1C [Example 59, 4-Hydroxy-N-(2-methoxy-4-(8-methyl-3-((trans)-4-(4-methylpiperazin-1-yl)cyclohexyl)imidazo[1,5-a]pyrazin-1-yl)phenyl)-1-methyl-1H-indole-2-carboxamide] | ≤ 10 nM
7 | CCC[C@H](C)OC(=O)Nc1ccc(-c2nc([C@H]3CC[C@H](CN)CC3)n3ccnc(C)c23)cc1OC [Example 60, (S)-Pentan-2-yl 4-(3-((trans)-4-(aminomethyl)cyclohexyl)-8-methylimidazo[1,5-a]pyrazin-1-yl)-2-methoxyphenylcarbamate] | ≤ 10 nM
8 | Cc1nccn2c1c(-c1ccc(NC(=O)c3cc4ccccc4n3C)cc1)nc2[C@H]1CC[C@H](N2CCN(C)CC2)CC1 [Example 61, 1-Methyl-N-(4-(8-methyl-3-((trans)-4-(4-methylpiperazin-1-yl)cyclohexyl)imidazo[1,5-a]pyrazin-1-yl)phenyl)-1H-indole-2-carboxamide] | ≤ 10 nM
9 | COc1cccc2c1cc(C(=O)Nc1ccc(-c3nc([C@H]4CC[C@H](N5CCN(C)CC5)CC4)n4ccnc(C)c34)cc1O)n2C [Example 62, N-(2-hydroxy-4-(8-methyl-3-((trans)-4-(4-methylpiperazin-1-yl)cyclohexyl)imidazo[1,5-a]pyrazin-1-yl)phenyl)-4-methoxy-1-methyl-1H-indole-2-carboxamide] | ≤ 10 nM
10 | CNC[C@H]1CC[C@H](c2nc(-c3ccc(NC(=O)c4cc5c(OC)cccc5n4C)c(OC)c3)c3c(C)nccn32)CC1 [Example 63, 4-Methoxy-N-(2-methoxy-4-(8-methyl-3-((trans)-4-((methylamino)methyl)cyclohexyl)imidazo[1,5-a]pyrazin-1-yl)phenyl)-1-methyl-1H-indole-2-carboxamide] | ≤ 10 nM
11 | COc1cc(-c2nc([C@H]3CC[C@H](CN(C)C)CC3)n3ccnc(C)c23)ccc1NC(=O)c1cc2c(OC)cccc2n1C [Example 64, N-(4-(3-((trans)-4-((dimethylamino)methyl)cyclohexyl)-8-methylimidazo[1,5-a]pyrazin-1-yl)-2-methoxyphenyl)-4-methoxy-1-methyl-1H-indole-2-carboxamide] | ≤ 10 nM
12 | CCC[C@H](C)OC(=O)Nc1ccc(-c2nc([C@H]3CC[C@H](CN(C)C)CC3)n3ccnc(C)c23)cc1OC [Example 65, (S)-Pentan-2-yl 4-(3-((trans)-4-((dimethylamino)methyl)cyclohexyl)-8-methylimidazo[1,5-a]pyrazin-1-yl)-2-methoxyphenylcarbamate] | ≤ 10 nM
13 | COc1ccc2c(C(=O)Nc3ccc(-c4nc([C@H]5CC[C@H](N6CCN(C)CC6)CC5)n5ccnc(C)c45)cc3OC)n[nH]c2c1 [Example 66, 6-Methoxy-N-(2-methoxy-4-(8-methyl-3-((trans)-4-(4-methylpiperazin-1-yl)cyclohexyl)imidazo[1,5-a]pyrazin-1-yl)phenyl)-1H-indazole-3-carboxamide] | ≤ 10 nM
14 | COc1cc(-c2nc([C@H]3CC[C@H](N4CCN(C)CC4)CC3)n3ccnc(C)c23)ccc1NC(=O)c1cc2cc(Cl)cnc2n1C [Example 67, 5-Chloro-N-(2-methoxy-4-(8-methyl-3-((trans)-4-(4-methylpiperazin-1-yl)cyclohexyl)imidazo[1,5-a]pyrazin-1-yl)phenyl)-1-methyl-1H-pyrrolo[2,3-b]pyridine-2-carboxamide] | ≤ 10 nM
15 | COc1cc(-c2nc([C@H]3CC[C@H](CNC(C)=O)CC3)n3ccnc(C)c23)ccc1NC(=O)c1cc2c(OC)cccc2n1C [Example 68, N-(4-(3-((trans)-4-(acetamidomethyl)cyclohexyl)-8-methylimidazo[1,5-a]pyrazin-1-yl)-2-methoxyphenyl)-4-methoxy-1-methyl-1H-indole-2-carboxamide] | ≤ 10 nM
16 | CCC[C@H](C)OC(=O)Nc1ccc(-c2nc([C@H]3CC[C@H](CNC(C)=O)CC3)n3ccnc(C)c23)cc1OC [Example 69, (S)-pentan-2-yl 4-(3-((trans)-4-(acetamidomethyl)cyclohexyl)-8-methylimidazo[1,5-a]pyrazin-1-yl)-2-methoxyphenylcarbamate] | ≤ 10 nM
17 | CCC[C@H](C)OC(=O)Nc1ccc(-c2nc([C@H]3CC[C@H](CNC(=O)OC)CC3)n3ccnc(C)c23)cc1OC [Example 70] | ≤ 10 nM
18 | COc1cc(-c2nc(C3CCC(=O)CC3)n3ccnc(C)c23)ccc1NC(=O)c1cc2c(OC)cccc2n1C [Example 71, 4-Methoxy-N-(2-methoxy-4-(8-methyl-3-(4-oxocyclohexyl)imidazo[1,5-a]pyrazin-1-yl)phenyl)-1-methyl-1H-indole-2-carboxamide] | ≤ 10 nM
19 | CNC[C@]1(O)CC[C@H](c2nc(-c3ccc(NC(=O)c4cc5c(OC)cccc5n4C)c(OC)c3)c3c(C)nccn32)CC1 [Example 72, N-(4-(3-((trans)-4-hydroxy-4-((methylamino)methyl)cyclohexyl)-8-methylimidazo[1,5-a]pyrazin-1-yl)-2-methoxyphenyl)-4-methoxy-1-methyl-1H-indole-2-carboxamide] | ≤ 10 nM
20 | COc1cc(-c2nc(C3CC(=O)N(C)C3)n3ccnc(C)c23)ccc1NC(=O)c1cc2c(OC)cccc2n1C (stereo not shown) [Example 73, 4-Methoxy-N-(2-methoxy-4-(8-methyl-3-(1-methyl-5-oxopyrrolidin-3-yl)imidazo[1,5-a]pyrazin-1-yl)phenyl)-1-methyl-1H-indole-2-carboxamide] | ≤ 10 nM
21 | COc1cc(-c2nc([C@H]3CC[C@H](N4CCN(C)C(=O)C4)CC3)n3ccnc(C)c23)ccc1NC(=O)c1cc2c(OC)cccc2n1C [Example 74, 4-Methoxy-N-(2-methoxy-4-(8-methyl-3-((trans)-4-(4-methyl-3-oxopiperazin-1-yl)cyclohexyl)imidazo[1,5-a]pyrazin-1-yl)phenyl)-1-methyl-1H-indole-2-carboxamide] | ≤ 10 nM
22 | COc1cc2cc(C(=O)Nc3ccc(-c4nc([C@H]5CC[C@H](N6CCN(C)CC6)CC5)n5ccnc(C)c45)cc3OC)n(C)c2cn1 [Example 75, 5-Methoxy-N-(2-methoxy-4-(8-methyl-3-((trans)-4-(4-methylpiperazin-1-yl)cyclohexyl)imidazo[1,5-a]pyrazin-1-yl)phenyl)-1-methyl-1H-pyrrolo[2,3-c]pyridine-2-carboxamide] | ≤ 10 nM
